# Source: BindingDB's records for patent US10836741 (Valo Early Discovery, Inc., 2020)
# Target: T1, Ubiquitin carboxyl-terminal hydrolase 7 [208-1102] (Human, UniProt Q93009)
# T1 construct: 208-1102
# Test: USP7 Assay A (Ubitquin-Rhodamine 110 Assay)
# Procedure: Each assay was performed in a final volume of 15 μL in assay buffer containing 20 mM Tris-HCl (pH 8.0, (1M Tris-HCl, pH 8.0 solution; Corning 46-031-CM)), 1 mM GSH (L-Glutathione reduced; Sigma # G4251), 0.03% BGG (0.22 μM filtered, Sigma, # G7516-25G), and 0.01% Triton X-100 (Sigma, # T9284-10L). Nanoliter quantities of either an 8-point or 10-point, 3-fold serial dilution in DMSO was pre-dispensed into assay plates (Perkin Elmer, ProxiPlate-384 F Plus, #6008269) for a final test concentration range of either 25 μM to 11 nM or 25 μM to 1.3 nM, respectively. The final concentration of the enzyme (USP7, construct USP7 (208-1102) 6*His, Viva Biotech) in the assay was 62.5 pM. Final substrate (Ub-Rh110; Ubiquitin-Rhodamine 110, R&D Systems # U-555) concentration was 25 nM with [Ub-Rh110]<<Km. 5 μL of 2× enzyme was added to assay plates (pre-stamped with compound) preincubated with USP7 for 30 min and then 5 μL of 2×Ub-Rh110 was added to assay plates. Plates were incubated stacked for 20 min at room temperature before 5 μL of stop solution (final concentration of 10 mM citric acid in assay buffer (Sigma, #251275-500G)). Fluorescence was read on the Envision (Excitation at 485 nm and Emission at 535 nm; Perkin Elmer) or on the PheraSTAR (Excitation at 485 nm and Emission at 535 nm; BMG Labtech).
# T1 sequence (Q93009 208-1102): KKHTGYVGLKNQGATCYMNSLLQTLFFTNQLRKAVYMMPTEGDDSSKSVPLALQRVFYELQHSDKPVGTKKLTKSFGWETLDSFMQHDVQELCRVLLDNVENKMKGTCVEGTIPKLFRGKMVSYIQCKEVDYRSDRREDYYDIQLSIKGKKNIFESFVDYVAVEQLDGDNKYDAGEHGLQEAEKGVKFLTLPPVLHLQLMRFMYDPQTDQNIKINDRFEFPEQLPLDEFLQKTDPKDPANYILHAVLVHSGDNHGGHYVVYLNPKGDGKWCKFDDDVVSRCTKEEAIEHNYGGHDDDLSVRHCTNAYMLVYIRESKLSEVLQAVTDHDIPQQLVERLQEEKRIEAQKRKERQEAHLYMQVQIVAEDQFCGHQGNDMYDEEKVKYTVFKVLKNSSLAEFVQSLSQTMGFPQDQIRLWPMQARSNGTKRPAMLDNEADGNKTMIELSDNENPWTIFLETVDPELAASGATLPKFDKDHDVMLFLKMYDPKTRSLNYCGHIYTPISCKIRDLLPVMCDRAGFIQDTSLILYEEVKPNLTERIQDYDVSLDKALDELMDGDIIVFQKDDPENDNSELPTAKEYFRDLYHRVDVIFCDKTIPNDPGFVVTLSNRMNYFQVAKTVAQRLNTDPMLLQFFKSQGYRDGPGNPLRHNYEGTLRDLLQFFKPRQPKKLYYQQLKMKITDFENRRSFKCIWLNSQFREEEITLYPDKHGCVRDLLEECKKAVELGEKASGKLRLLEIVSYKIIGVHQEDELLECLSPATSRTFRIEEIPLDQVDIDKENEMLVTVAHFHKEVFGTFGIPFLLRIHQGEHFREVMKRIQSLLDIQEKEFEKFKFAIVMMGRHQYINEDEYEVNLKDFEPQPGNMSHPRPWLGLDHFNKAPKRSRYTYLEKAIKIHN
smiles,measurement,value
"COc1cccc2c(=O)n(CC3(O)CCN(C(=O)CC(C)c4ccccc4)CC3)cnc12 (stereo unspecified) [US10836741, Example I-6]",IC50,< 200 nM
